Drawing on patent publication US8518931B2, “Compounds and compositions as kinase inhibitors” (IRM LLC, priority 2008, dated 2013), this text covers IC50 for 45 compounds.

For the assay, the target named is T1, NPM-ALK (Homo sapiens, UniProt Q9UM73).
T1 construct: nucleophosmin (NPM, NPM1; human P06748) fusion partner; expressed in transfected cells; host or cells: murine BaF3 cells (DSMZ), transfected with pCIneo (Promega) coding for NPM-ALK and selected with G418; the other entry of the earlier key: Npm1 (Q61937, Nucleophosmin)
T1 sequence (Q9UM73 with tags, fused parts or gaps): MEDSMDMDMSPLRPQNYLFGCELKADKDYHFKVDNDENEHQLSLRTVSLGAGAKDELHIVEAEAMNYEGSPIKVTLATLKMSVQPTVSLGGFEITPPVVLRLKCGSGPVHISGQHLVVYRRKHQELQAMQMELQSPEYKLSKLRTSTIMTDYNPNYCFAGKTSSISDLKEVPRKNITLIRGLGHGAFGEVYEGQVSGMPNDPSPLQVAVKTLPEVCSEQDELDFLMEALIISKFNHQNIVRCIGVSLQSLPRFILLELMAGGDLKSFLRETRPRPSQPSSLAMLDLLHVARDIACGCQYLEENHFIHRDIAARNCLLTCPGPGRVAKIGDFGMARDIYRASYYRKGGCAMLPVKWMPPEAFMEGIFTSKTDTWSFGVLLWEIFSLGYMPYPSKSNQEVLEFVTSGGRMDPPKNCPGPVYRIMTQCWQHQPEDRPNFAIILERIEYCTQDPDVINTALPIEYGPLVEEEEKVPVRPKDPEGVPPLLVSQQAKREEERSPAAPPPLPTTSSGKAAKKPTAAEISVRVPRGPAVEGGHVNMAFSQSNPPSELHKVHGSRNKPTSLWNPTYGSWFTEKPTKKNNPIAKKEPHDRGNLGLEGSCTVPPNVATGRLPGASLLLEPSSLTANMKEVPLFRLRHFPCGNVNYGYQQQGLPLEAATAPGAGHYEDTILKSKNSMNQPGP
The assay can be described thus: NPM-ALK BaF3 assay (growth inhibition of BaF3-NPM-ALK cells). In kind it is cell-based. Conditions: human NPM-ALK overexpressing murine BaF3 cells. An excerpt: The expression of NPM-ALK may be achieved by transfecting the BaF3 cell line with an expression vector pClneo™ (Promega Corp., Madison Wis., USA) coding for NPM-ALK and subsequent selection of G418 resistant cells. Non-transfected BaF3 cells depend on IL-3 for cell survival. In contrast, NPM-ALK expressing BaF3 cells (named BaF3-NPM-ALK hereinafter) can proliferate in the absence of IL-3 because they obtain proliferative signal through NPM-ALK kinase. Putative inhibitors of the NPM-ALK kinase therefore abolish the growth signal and may result in antiproliferative activity. The antiproliferative activity of putative inhibitors of the NPM-ALK kinase can however be overcome by addition of IL-3, which provides growth signals through an NPM-ALK independent mechanism. An analogous cell system using FLT3 kinase has also been described (see, E Weisberg et al. Cancer Cell; 1, 433-443 (2002)).
The inhibitory activity of the compounds of the invention may be determined as follows. In general, BaF3-NPM-ALK cells (15,000/microtitre plate well) are transferred to 96-well microtitre plates. Test compounds dissolved in dimethyl sulfoxide (DMSO) are added in a series of concentrations (dilution series) in such a manner that the final concentration of DMSO is not greater than 1% (v/v). After the addition, the plates are incubated for two days during which the control cultures without test compound are able to undergo two cell-division cycles. The growth of the BaF3-NPM-ALK cells is measured by means of YOPRO™ staining [T Idziorek et al. J. Immunol. Methods; 185: 249-258 (1995)]: 25 μl of lysis buffer comprising 20 mM sodium citrate, pH 4.0, 26.8 mM sodium chloride, 0.4% NP40, 20 mM EDTA and […] to each well. Cell lysis is completed within 60 min at room temperature and total amount of YOPRO™ bound to DNA is determined by measurement using the Cytofluor II 96-well reader (PerSeptive Biosystems) with the following settings: Excitation (nm) 485/20 and Emission (nm) 530/25.
IC50 values may be determined by a computer-aided system using the formula: IC50=[(ABStest−ABSstart)/(ABScontrol−ABSstart)]×100·(ABS=absorption)
In general, compounds of the invention have IC50 values from 1 nM to 10 μM. In some examples, compounds of the invention have IC50 values from 0.01 μM to 5 μM. In other examples, compounds of the invention have IC50 values from 0.01 μM to 1 μM, or more particularly from 1 nM to 1 μM.
Table 1 describes representative compounds of the invention, prepared following the procedures described above. IC50 values are as measured in an NPM-ALK BaF3 assay.
As for `COc1cc(C2CCN(C(=O)[C@H](C)N3CCC3)CC2)c(C)cc1Nc1nc(Nc2ccccc2S(=O)(=O)C(C)C)n2nccc2n1` [Ex 61], it took 34 nM to reach half-maximal inhibition (IC50).

With `COc1cc(C2CCN(C(=O)CN3CC[C@@H](F)C3)CC2)c(C)cc1Nc1nc(Nc2ccccc2S(=O)(=O)C(C)C)n2nccc2n1` [Ex 62], the midpoint of inhibition, the IC50, lay at 58 nM.

In the case of `COc1cc(C2CCN(C(=O)CNC(C)(C)C)CC2)c(C)cc1Nc1nc(Nc2ccccc2S(=O)(=O)C(C)C)n2nccc2n1` [Ex 63], the 50% inhibitory concentration (IC50) (as a rule, the concentration that inhibits the measured activity by half) was 53 nM.

Regarding `COc1cc(C2CCN(C(=O)[C@H](C)NC(C)C)CC2)c(C)cc1Nc1nc(Nc2ccccc2S(=O)(=O)C(C)C)n2nccc2n1` [Ex 64], the concentration for half-maximal inhibition (IC50) worked out at 28 nM.

For `COc1cc(C2CCN(C(=O)[C@H](C)NCCO)CC2)c(C)cc1Nc1nc(Nc2ccccc2S(=O)(=O)C(C)C)n2nccc2n1` [Ex 65], half-maximal inhibition (IC50) required 37 nM.

Compound `COc1cc(C2CCN(C(=O)[C@H](C)N(C)C)CC2)c(C)cc1Nc1nc(Nc2ccccc2S(=O)(=O)C(C)C)n2nccc2n1` [Ex 66] returned an IC50 of 32 nM.

The compound `COc1cc(C2CCN(C(=O)[C@H](C)N)CC2)c(C)cc1Nc1nc(Nc2ccccc2S(=O)(=O)C(C)C)n2nccc2n1` [Ex 67] returned a half-maximal inhibitory concentration (IC50) of 40 nM.

Take `COc1cc(C2CCN(C(=O)CN)CC2)c(C)cc1Nc1nc(Nc2ccccc2S(=O)(=O)C(C)C)n2nccc2n1` [Ex 68]: inhibition was half-maximal at 17 nM (IC50).

As to `COc1cc(C2CCN(C(=O)[C@@H](N)CO)CC2)c(C)cc1Nc1nc(Nc2ccccc2S(=O)(=O)C(C)C)n2nccc2n1` [Ex 69], the IC50 stood at 59 nM.

`COc1cc(C2CCN(C(=O)[C@H]3COCCN3)CC2)c(C)cc1Nc1nc(Nc2ccccc2S(=O)(=O)C(C)C)n2nccc2n1` [Ex 70, (R)-(4-(4-(4-(2-(isopropylsulfonyl)phenylamino)pyrazolo[1,5-a][1,3,5]triazin-2-ylamino)-5-methoxy-2-methylphenyl)piperidin-1-yl)(morpholin-3-yl)methanone] showed a concentration for half-maximal inhibition (IC50) of 35 nM.

`COc1cc(C2CCN(C(=O)[C@@H]3COCCN3)CC2)c(C)cc1Nc1nc(Nc2ccccc2S(=O)(=O)C(C)C)n2nccc2n1` [Ex 71] had an IC50 of 22 nM.

Regarding `COc1cc(C2CCN(C(=O)CCCN(C)C)CC2)c(C)cc1Nc1nc(Nc2ccccc2S(=O)(=O)C(C)C)n2nccc2n1` [Ex 72], inhibition was half-maximal at 58 nM (IC50).

The compound `COc1cc(C2CCN(C(=O)CO)CC2)c(C)cc1Nc1nc(Nc2ccccc2S(=O)(=O)C(C)C)n2nccc2n1` [Ex 73] gave a half-maximal inhibitory concentration (IC50) of 40 nM.

The compound `COCCNCC(=O)N1CCC(c2cc(OC)c(Nc3nc(Nc4ccccc4S(=O)(=O)C(C)C)n4nccc4n3)cc2C)CC1` [Ex 74] returned an IC50 of 28 nM.

With `COc1cc(C2CCN(C(=O)CN3CC[C@H](F)C3)CC2)c(C)cc1Nc1nc(Nc2ccccc2S(=O)(=O)C(C)C)n2nccc2n1` [Ex 76], inhibition was half-maximal at 75 nM (IC50).

`COc1cc(C2CCN(C(=O)CN3CC[C@H](O)C3)CC2)c(C)cc1Nc1nc(Nc2ccccc2S(=O)(=O)C(C)C)n2nccc2n1` [Ex 77] gave an IC50 of 36 nM.

As for `COc1cc(C2CCN(C(=O)[C@H](C)N3CC[C@H](O)C3)CC2)c(C)cc1Nc1nc(Nc2ccccc2S(=O)(=O)C(C)C)n2nccc2n1` [Ex 78], the IC50 was found to be 36 nM.

With `COc1cc(C2CCN(C(=O)[C@H](C)N3CC[C@@H](O)C3)CC2)c(C)cc1Nc1nc(Nc2ccccc2S(=O)(=O)C(C)C)n2nccc2n1` [Ex 79], the 50% inhibitory concentration (IC50) was determined as 38 nM.

In turn, `COc1cc(C2CCN(C(=O)[C@H](C)N3CCCC3)CC2)c(C)cc1Nc1nc(Nc2ccccc2S(=O)(=O)C(C)C)n2nccc2n1` [Ex 80] showed an IC50 of 33 nM.

In turn, `COc1cc(C2CCN(C(=O)[C@@H](C)N3CCC3)CC2)c(C)cc1Nc1nc(Nc2ccccc2S(=O)(=O)C(C)C)n2nccc2n1` [Ex 81] gave an IC50 of 26 nM.

The compound `COc1cc(C2CCN(C3CCOCC3)CC2)c(C)cc1Nc1nc(Nc2ccccc2S(=O)(=O)C(C)C)n2nccc2n1` [Ex 83] yielded an IC50 of 23 nM.

In the case of `COc1cc(C2CCN(C3CCSCC3)CC2)c(C)cc1Nc1nc(Nc2ccccc2S(=O)(=O)C(C)C)n2nccc2n1` [Ex 84], the IC50 is 25 nM.

Regarding `COc1cc(C2CCN(C(=O)[C@H]3COC(C)(C)CN3)CC2)c(C)cc1Nc1nc(Nc2ccccc2S(=O)(=O)C(C)C)n2nccc2n1` [Ex 85], 34 nM corresponded to half-maximal inhibition (IC50).

For the compound `COc1cc(C2CCN(C(=O)[C@H](N)CO)CC2)c(C)cc1Nc1nc(Nc2ccccc2S(=O)(=O)C(C)C)n2nccc2n1` [Ex 86], the concentration for half-maximal inhibition (IC50) stood at 34 nM.

In the case of `COc1cc(C2CCN(C(=O)[C@@H]3COC(C)(C)CN3)CC2)c(C)cc1Nc1nc(Nc2ccccc2S(=O)(=O)C(C)C)n2nccc2n1` [Ex 87], the IC50 stood at 29 nM.

As to `COc1cc(C2CCN(C(=O)CN3CCOCC3)CC2)c(C)cc1Nc1nc(Nc2ccccc2S(=O)(=O)C(C)C)n2nccc2n1` [Ex 88], the IC50 came out at 47 nM.

As for `COc1cc(C2CCN(CCC(=O)N3CCC3)CC2)c(C)cc1Nc1nc(Nc2ccccc2S(=O)(=O)C(C)C)n2nccc2n1` [Ex 89], the half-inhibitory concentration (IC50) was found to be 15 nM.

As for `CNC(=O)CCN1CCC(c2cc(OC)c(Nc3nc(Nc4ccccc4S(=O)(=O)C(C)C)n4nccc4n3)cc2C)CC1` [Ex 90], the IC50 came to 13 nM.

Compound `CC(C)S(=O)(=O)c1ccccc1Nc1nc(Nc2ccc(C3CCN(CC(N)=O)CC3)cc2)nc2ccnn12` [Ex 91] came in with an IC50 of 128 nM.

As for `CC(C)S(=O)(=O)c1ccccc1Nc1nc(Nc2ccc(C3CCN(CCC(N)=O)CC3)cc2)nc2ccnn12` [Ex 92], the 50% inhibitory concentration (IC50) was 130 nM.

For the compound `CC(C)S(=O)(=O)c1ccccc1Nc1nc(Nc2ccc(C3CCN(C(=O)CN4CCC4)CC3)cc2)nc2ccnn12` [Ex 93], it took 132 nM to reach half-maximal inhibition (IC50).

Turning to `COC[C@H](N)C(=O)N1CCC(c2cc(OC)c(Nc3nc(Nc4ccccc4S(=O)(=O)C(C)C)n4nccc4n3)cc2C)CC1` [Ex 94], half-maximal inhibition (IC50) was put at 16 nM.

Regarding `COc1cc(C2CCN(C(=O)[C@H](C)N(C)CCO)CC2)c(C)cc1Nc1nc(Nc2ccccc2S(=O)(=O)C(C)C)n2nccc2n1` [Ex 95], the IC50 came out at 22 nM.

`COc1cc(C2CCN(C(=O)[C@@H](C)N3CCCC3)CC2)c(C)cc1Nc1nc(Nc2ccccc2S(=O)(=O)C(C)C)n2nccc2n1` [Ex 96] yielded an IC50 of 32 nM.

In turn, `COc1cc(C2CCN(C(=O)[C@@H](C)NCCO)CC2)c(C)cc1Nc1nc(Nc2ccccc2S(=O)(=O)C(C)C)n2nccc2n1` [Ex 97] showed a half-maximal inhibitory concentration (IC50) of 32 nM.

As for `COc1cc(C2CCN(C(=O)[C@@H](C)N(C)CCO)CC2)c(C)cc1Nc1nc(Nc2ccccc2S(=O)(=O)C(C)C)n2nccc2n1` [Ex 98], the midpoint of inhibition, the IC50, lay at 13 nM.

As for `CCN(CC)CCC(=O)N1CCC(c2cc(OC)c(Nc3nc(Nc4ccccc4S(=O)(=O)C(C)C)n4nccc4n3)cc2C)CC1` [Ex 99], the IC50 was 35 nM.

Turning to `COc1cc(C2CCN(C(=O)CCCN3CCCC3)CC2)c(C)cc1Nc1nc(Nc2ccccc2S(=O)(=O)C(C)C)n2nccc2n1` [Ex 100], 33 nM corresponded to half-maximal inhibition (IC50).

Regarding `COc1cc(C2CCN(C(=O)CCCN3CCOCC3)CC2)c(C)cc1Nc1nc(Nc2ccccc2S(=O)(=O)C(C)C)n2nccc2n1` [Ex 101], half-maximal inhibition (IC50) was put at 31 nM.

On to `CCCN(CCC)CC(=O)N1CCC(c2cc(OC)c(Nc3nc(Nc4ccccc4S(=O)(=O)C(C)C)n4nccc4n3)cc2C)CC1` [Ex 102], for which the IC50 is 49 nM.

The compound `CCCNCC(=O)N1CCC(c2cc(OC)c(Nc3nc(Nc4ccccc4S(=O)(=O)C(C)C)n4nccc4n3)cc2C)CC1` [Ex 103] had a half-inhibitory concentration (IC50) of 16 nM.

On to `COc1cc(C2CCN(C(=O)CCN3CCCC3)CC2)c(C)cc1Nc1nc(Nc2ccccc2S(=O)(=O)C(C)C)n2nccc2n1` [Ex 104], for which 49 nM corresponded to half-maximal inhibition (IC50).

Regarding `CCNCC(=O)N1CCC(c2cc(OC)c(Nc3nc(Nc4ccccc4S(=O)(=O)C(C)C)n4nccc4n3)cc2C)CC1` [Ex 105], it took 15 nM to reach half-maximal inhibition (IC50).

Compound `COc1cc(C2CCN(C(=O)C(C)(CO)CO)CC2)c(C)cc1Nc1nc(Nc2ccccc2S(=O)(=O)C(C)C)n2nccc2n1` [Ex 106] registered a half-maximal inhibitory concentration (IC50) of 16 nM.

As to `CCN(CC)CC(=O)N1CCC(c2cc(OC)c(Nc3nc(Nc4ccccc4S(=O)(=O)C(C)C)n4nccc4n3)cc2C)CC1` [Ex 110], the half-maximal inhibitory concentration (IC50) stood at 16 nM.
